Measured values as given in patent publication US11975105B2 (EMPROS PHARMA AB, priority 2014, dated 2024).
Where two headings read alike, the source gives them in different places.

What was measured:
[1] = cited from earlier work; for frequency of side effects, comparative: human, in vivo
[2] = cited from earlier work; for additional weight loss relative to placebo: at one year
[3] = cited from earlier work
[4] = pH dependent degradation when solubility from a powder was investigated at 37° C.; format: physicochemical; settings: FIG. 1A-B
[5] = cited from earlier work; for fraction of the dose absorbed: oral administration

For `CCCCCCCCCCCCCCCCOc1nc2ccc(C)cc2c(=O)o1` [cetilistat], the “frequency of side effects, comparative” value [1] is listed as “much lower frequency of side effects”.

In the case of `C[C@H]1CNCCc2ccc(Cl)cc21` [lorcaserin], the “additional weight loss relative to placebo” value [2] is given as about 3%, the “decrease of body weight more than placebo” value ([2]; human, in vivo) is given as “about 3.2 kg” and the “decrease of body weight more than placebo, of initial body weight” value ([2]; human, in vivo) is given as “about 3.2%”.

For `CCCCCCCCCCCC(CC1OC(=O)[C@H]1CCCCCC)OC(=O)C(CC(C)C)NC=O` (stereo in doubt) [orlistat, (S)—((S)-1-((2S,3S)-3-Hexyl-4-oxooxetan-2-yl)tridecan-2-yl) 2-formamido-4-methylpentanoate], the “patients complaining about GI side-effects (diarrhea, oily spottings, fecal urgency)” value ([1]; clinical trials) is given as at least 25%, the “log P” value [3] is given as 8.5 and the solubility in water [3] is given as “practically insoluble in water”. The “log P” value ([3]; listed as Orlistat) was 8.4, the “additional weight loss relative to placebo” value [2] was about 3% and the relative weight loss ([2]; best case scenario, placebo 6%) was 10%. The pH dependent degradation [4] was “A similar tendency”, the plasma exposure ([5]; conventional oral dosage form) was under 5 ng/mL and the “fraction of the dose absorbed” value [5] was under 3%.

For `OCC(CO)N[C@H]1C[C@](O)(CO)[C@@H](O)[C@H](O)[C@H]1O` [voglibose], the “frequency of side effects, comparative” value [1] is listed as “lower frequency of GI side effects compared to acarbose” and the “fraction of the dose absorbed” value [5] is listed as “negligibly absorbed”.

In the case of `OCCN1C[C@H](O)[C@@H](O)[C@H](O)[C@H]1CO` [miglitol], the “fraction of the dose absorbed” value [5] is listed as 100%.
